Test results reported in the OligoGym collection.
HELM strings list units from the 5' end as sugar, base in round brackets, then linkage (d deoxyribose, r ribose, m 2'-O-methyl, p phosphodiester). Strings are as the collection lists them; they lack the last nucleoside at the 3' end of the tested compound. [moe] = 2'-O-(2-methoxyethyl) (MOE); [sp] = phosphorothioate linkage; [m5C] = 5-methylcytosine

Target: UBE3A-ATS
Experiment: mouse, dose not given
Settings: ASO

| Substance | 3 h FOB score |
| --- | --- |
| RNA1{[moe](G)[sp].[moe](T)p.[moe](A)p.[moe](A)p.[moe](G)p.d(A)[sp].d(G)[sp].d(T)[sp].d(T)[sp].d(A)[sp].d(G)[sp].d([m5C])[sp].d(T)[sp].d(A)[sp].d(T)[sp].[moe](T)p.[moe]([m5C])p.[moe]([m5C])[sp].[moe]([m5C])}$$$$ (last 3' nucleoside missing) | 4 score 0-7 |
| RNA1{[moe](A)[sp].[moe](T)p.[moe](T)p.[moe](G)p.[moe](T)p.d([m5C])[sp].d([m5C])[sp].d(T)[sp].d([m5C])[sp].d([m5C])[sp].d(T)[sp].d(G)[sp].d(G)[sp].d(T)[sp].d(A)[sp].[moe](A)p.[moe]([m5C])p.[moe]([m5C])[sp].[moe](A)}$$$$ (last 3' nucleoside missing) | 1.2 score 0-7 |
| RNA1{[moe]([m5C])[sp].[moe](T)p.[moe](G)p.[moe](T)p.[moe](A)p.d(A)[sp].d(G)[sp].d(T)[sp].d(A)[sp].d(T)[sp].d(A)[sp].d(G)[sp].d(A)[sp].d(T)[sp].d(G)[sp].[moe]([m5C])p.[moe]([m5C])p.[moe](T)[sp].[moe]([m5C])}$$$$ (last 3' nucleoside missing) | 3.2 score 0-7 |
| RNA1{[moe](T)[sp].[moe](G)p.[moe](T)p.[moe](G)p.d(T)[sp].d(T)[sp].d(T)[sp].d(T)[sp].d(T)[sp].d([m5C])[sp].d([m5C])[sp].d(A)[sp].d(T)[sp].d(T)[sp].[moe](T)p.[moe](T)p.[moe](T)p.[moe]([m5C])[sp].[moe](T)}$$$$ (last 3' nucleoside missing) | 1 score 0-7 |
| RNA1{[moe]([m5C])[sp].[moe](T)p.[moe](G)p.[moe](A)p.[moe](T)p.[moe]([m5C])p.d(A)[sp].d([m5C])[sp].d(A)[sp].d(T)[sp].d(T)[sp].d(A)[sp].d([m5C])[sp].d([m5C])[sp].d([m5C])[sp].d(A)[sp].[moe](T)p.[moe]([m5C])[sp].[moe]([m5C])}$$$$ (last 3' nucleoside missing) | 0 score 0-7 |
| RNA1{[moe](A)[sp].[moe](T)p.[moe]([m5C])p.[moe](A)p.[moe]([m5C])p.d(A)[sp].d(T)[sp].d(T)[sp].d(A)[sp].d([m5C])[sp].d([m5C])[sp].d([m5C])[sp].d(A)[sp].d(T)[sp].d([m5C])[sp].[moe]([m5C])p.[moe](G)p.[moe](T)[sp].[moe](T)}$$$$ (last 3' nucleoside missing) | 0 score 0-7 |
| RNA1{[moe](T)[sp].[moe](A)p.[moe](T)p.[moe](T)p.[moe](G)p.d([m5C])[sp].d([m5C])[sp].d(T)[sp].d(T)[sp].d([m5C])[sp].d(A)[sp].d([m5C])[sp].d(T)[sp].d(G)[sp].d([m5C])[sp].[moe](T)p.[moe](G)p.[moe]([m5C])[sp].[moe]([m5C])}$$$$ (last 3' nucleoside missing) | 3.2 score 0-7 |
| RNA1{[moe](A)[sp].[moe]([m5C])p.[moe](T)p.[moe](G)p.[moe](T)p.d(T)[sp].d(A)[sp].d([m5C])[sp].d([m5C])[sp].d(A)[sp].d(A)[sp].d(G)[sp].d(A)[sp].d([m5C])[sp].d(T)[sp].[moe](T)p.[moe]([m5C])p.[moe](A)[sp].[moe](G)}$$$$ (last 3' nucleoside missing) | 3.8 score 0-7 |
| RNA1{[moe](G)[sp].[moe](T)p.[moe](G)p.[moe](A)p.[moe](G)p.d([m5C])[sp].d(T)[sp].d(A)[sp].d(T)[sp].d([m5C])[sp].d(T)[sp].d(G)[sp].d(T)[sp].d(A)[sp].d([m5C])[sp].[moe](A)p.[moe](A)p.[moe](A)[sp].[moe](A)}$$$$ (last 3' nucleoside missing) | 3.2 score 0-7 |
| RNA1{[moe](A)[sp].[moe](G)p.[moe]([m5C])p.[moe](T)p.[moe]([m5C])p.d(A)[sp].d([m5C])[sp].d(T)[sp].d(G)[sp].d(A)[sp].d(A)[sp].d(A)[sp].d(G)[sp].d(A)[sp].d([m5C])[sp].[moe](A)p.[moe]([m5C])p.[moe](A)[sp].[moe](A)}$$$$ (last 3' nucleoside missing) | 5 score 0-7 |
| RNA1{[moe](A)[sp].[moe](G)p.[moe](A)p.[moe](T)p.[moe](A)p.d([m5C])[sp].d(T)[sp].d([m5C])[sp].d(A)[sp].d([m5C])[sp].d(T)[sp].d([m5C])[sp].d(G)[sp].d([m5C])[sp].d(T)[sp].[moe](T)p.[moe](T)p.[moe](T)[sp].[moe]([m5C])}$$$$ (last 3' nucleoside missing) | 3.2 score 0-7 |
| RNA1{[moe](G)[sp].[moe](A)p.[moe](G)p.[moe](A)p.[moe](T)p.d(A)[sp].d(G)[sp].d(A)[sp].d(A)[sp].d([m5C])[sp].d(A)[sp].d([m5C])[sp].d(T)[sp].d(T)[sp].d([m5C])[sp].[moe](G)p.[moe]([m5C])p.[moe]([m5C])[sp].[moe](G)}$$$$ (last 3' nucleoside missing) | 5 score 0-7 |
| RNA1{[moe](G)[sp].[moe]([m5C])p.[moe](A)p.[moe]([m5C])p.[moe](A)p.d(T)[sp].d(A)[sp].d(G)[sp].d(A)[sp].d([m5C])[sp].d([m5C])[sp].d(A)[sp].d(T)[sp].d(A)[sp].d(G)[sp].[moe]([m5C])p.[moe](T)p.[moe](G)[sp].[moe](A)}$$$$ (last 3' nucleoside missing) | 3.3 score 0-7 |
| RNA1{[moe]([m5C])[sp].[moe](T)p.[moe]([m5C])p.[moe](A)p.[moe](G)p.[moe](T)p.d(T)[sp].d(A)[sp].d(G)[sp].d(G)[sp].d(T)[sp].d(T)[sp].d(A)[sp].d(G)[sp].d(T)[sp].d(G)[sp].[moe]([m5C])p.[moe](A)[sp].[moe]([m5C])}$$$$ (last 3' nucleoside missing) | 4 score 0-7 |
| RNA1{[moe](G)[sp].[moe](G)p.[moe](G)p.[moe]([m5C])p.[moe](A)p.d(G)[sp].d([m5C])[sp].d(A)[sp].d(A)[sp].d([m5C])[sp].d(A)[sp].d(G)[sp].d([m5C])[sp].d(T)[sp].d([m5C])[sp].[moe](T)p.[moe](T)p.[moe](G)[sp].[moe](A)}$$$$ (last 3' nucleoside missing) | 7 score 0-7 |
| RNA1{[moe](T)[sp].[moe](G)p.[moe](A)p.[moe](T)p.d([m5C])[sp].d(A)[sp].d([m5C])[sp].d(A)[sp].d(T)[sp].d(T)[sp].d(A)[sp].d([m5C])[sp].d([m5C])[sp].d([m5C])[sp].[moe](A)p.[moe](T)p.[moe]([m5C])p.[moe]([m5C])[sp].[moe](G)}$$$$ (last 3' nucleoside missing) | 1 score 0-7 |
| RNA1{[moe](A)[sp].[moe]([m5C])p.[moe](T)p.[moe](T)p.[moe]([m5C])p.d(A)[sp].d(T)[sp].d([m5C])[sp].d(A)[sp].d(A)[sp].d(T)[sp].d(A)[sp].d(T)[sp].d(T)[sp].d(T)[sp].[moe]([m5C])p.[moe]([m5C])p.[moe]([m5C])[sp].[moe]([m5C])}$$$$ (last 3' nucleoside missing) | 0 score 0-7 |
| RNA1{[moe]([m5C])[sp].[moe](T)p.[moe](T)p.[moe](T)p.[moe](A)p.d(T)[sp].d(A)[sp].d([m5C])[sp].d(T)[sp].d(T)[sp].d(T)[sp].d(A)[sp].d([m5C])[sp].d([m5C])[sp].d([m5C])[sp].[moe](A)p.[moe](A)p.[moe]([m5C])[sp].[moe](T)}$$$$ (last 3' nucleoside missing) | 0 score 0-7 |
| RNA1{[moe](T)[sp].[moe](T)p.[moe](A)p.[moe](T)p.[moe](T)p.d(G)[sp].d(G)[sp].d(T)[sp].d([m5C])[sp].d(A)[sp].d(T)[sp].d([m5C])[sp].d(T)[sp].d([m5C])[sp].d(G)[sp].[moe](G)p.[moe](G)p.[moe](T)[sp].[moe](A)}$$$$ (last 3' nucleoside missing) | 4 score 0-7 |
| RNA1{[moe](G)[sp].[moe](G)p.[moe](T)p.[moe](A)p.[moe](T)p.d(T)[sp].d(G)[sp].d(A)[sp].d([m5C])[sp].d(A)[sp].d([m5C])[sp].d([m5C])[sp].d(T)[sp].d([m5C])[sp].d([m5C])[sp].[moe](A)p.[moe](A)p.[moe]([m5C])[sp].[moe](T)}$$$$ (last 3' nucleoside missing) | 5 score 0-7 |
| RNA1{[moe](G)[sp].[moe](T)p.[moe](G)p.[moe](T)p.[moe](G)p.d(T)[sp].d(G)[sp].d([m5C])[sp].d(A)[sp].d(A)[sp].d(T)[sp].d(A)[sp].d(G)[sp].d([m5C])[sp].d([m5C])[sp].[moe](T)p.[moe](A)p.[moe](A)[sp].[moe](A)}$$$$ (last 3' nucleoside missing) | 3.5 score 0-7 |
| RNA1{[moe](G)[sp].[moe](G)p.[moe](T)p.[moe](A)p.[moe](G)p.d(T)[sp].d([m5C])[sp].d(T)[sp].d(A)[sp].d(T)[sp].d(A)[sp].d(T)[sp].d(T)[sp].d(T)[sp].d(G)[sp].[moe](G)p.[moe](T)p.[moe](A)[sp].[moe](A)}$$$$ (last 3' nucleoside missing) | 6.2 score 0-7 |
| RNA1{[moe](G)[sp].[moe](T)p.[moe](G)p.[moe](A)p.d(G)[sp].d([m5C])[sp].d(T)[sp].d(A)[sp].d(T)[sp].d([m5C])[sp].d(T)[sp].d(G)[sp].d(T)[sp].d(A)[sp].[moe]([m5C])p.[moe](A)p.[moe](A)p.[moe](A)[sp].[moe](A)}$$$$ (last 3' nucleoside missing) | 4 score 0-7 |
| RNA1{[moe](A)[sp].[moe](G)p.[moe]([m5C])p.[moe](T)p.[moe](T)p.d(T)[sp].d(A)[sp].d(G)[sp].d(T)[sp].d(A)[sp].d(T)[sp].d(G)[sp].d(T)[sp].d([m5C])[sp].d(G)[sp].[moe](A)p.[moe](G)p.[moe](A)[sp].[moe](A)}$$$$ (last 3' nucleoside missing) | 4.2 score 0-7 |
| RNA1{[moe](G)[sp].[moe](T)p.[moe](G)p.[moe](A)[sp].d(G)[sp].d([m5C])[sp].d(T)[sp].d(A)[sp].d(T)[sp].d([m5C])[sp].d(T)[sp].d(G)[sp].[moe](T)p.[moe](A)p.[moe]([m5C])p.[moe](A)[sp].[moe](A)}$$$$ (last 3' nucleoside missing) | 1.7 score 0-7 |
| RNA1{[moe](T)[sp].[moe](G)p.[moe]([m5C])p.[moe](T)p.d(T)[sp].d([m5C])[sp].d(A)[sp].d([m5C])[sp].d([m5C])[sp].d(A)[sp].d(T)[sp].d(T)[sp].d(T)[sp].d(T)[sp].[moe](G)p.[moe](A)p.[moe]([m5C])p.[moe]([m5C])[sp].[moe](T)}$$$$ (last 3' nucleoside missing) | 0 score 0-7 |
